The results in this text go back to article PMC8151276, “An Integrated Approach toward NanoBRET Tracers for Analysis of GPCR Ligand Engagement” (Molecules, 2021).

Experiment [1] addresses T1, HTR2C (Homo sapiens, UniProt P28335).
T1 construct: purchased Promega (in-house HiBiT-GPCR construct library, NanoBRET)
T1 sequence (P28335 33-458): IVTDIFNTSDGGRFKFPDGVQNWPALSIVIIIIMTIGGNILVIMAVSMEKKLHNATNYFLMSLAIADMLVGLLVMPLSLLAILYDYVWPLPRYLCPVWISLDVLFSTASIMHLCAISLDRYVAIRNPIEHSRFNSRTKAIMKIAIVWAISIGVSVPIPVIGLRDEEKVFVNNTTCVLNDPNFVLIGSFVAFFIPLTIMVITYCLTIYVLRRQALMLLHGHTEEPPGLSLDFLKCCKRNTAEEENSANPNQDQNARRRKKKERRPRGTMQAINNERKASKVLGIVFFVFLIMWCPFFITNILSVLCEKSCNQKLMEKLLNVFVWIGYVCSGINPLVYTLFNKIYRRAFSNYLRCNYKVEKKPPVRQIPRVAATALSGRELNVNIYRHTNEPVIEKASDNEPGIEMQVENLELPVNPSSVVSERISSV
In words: NanoBRET screen HiBiT-HTR2C in HEK293. The experiment is classed as binding. The protocol:
(§1) Each tracer candidate was screened across the entire library of HiBiT-GPCR constructs using NanoBRET as the detection modality. As depicted in Figure 4A, the specificity of interactions was evaluated through decrease in BRET due to competitive displacement of a bound tracer by excess parental compound. Each tracer was analyzed for binding to each HiBiT-GPCR fusion in the absence and in the presence of competing parental compound. Briefly, HEK293 cells were transfected with HiBiT-GPCR constructs diluted into promoterless DNA to reduce expression and maximize translocation to the cell surface. Each tracer candidate was then screened at concentrations of 1 μM and 0.1 μM across cells expressing these fusions. Cells were treated for 1.5 h with tracer either alone or in the presence of 20 μM competing parental compound (i.e., control). BRET was measured upon addition of purified LgBiT and subsequent complementation with HiBiT genetically fused to a GPCR. The specificity of interactions was assessed through a decrease in BRET signal due to competitive displacement of the bound tracer. To further gauge the robustness of these interactions, the fold response over the control (i.e., BRETtracer/BRETcontrol) was calculated. We chose a 1.5-fold response, which translates to ≥7-fold signal over noise as the minimal threshold required to score an interaction as positive.
(§2) HiBiT-GPCR DNA constructs were diluted in 10 mM Tris pH 8 to a final concentration of 0.01 μg/μL, arrayed in 96-well plates and stored at −20 °C. For transfection, HEK293 cells were suspended in Opti-MEM (without phenol red) supplemented with 2% fetal bovine serum (Seradigm) and 100 units/mL penicillin–streptomycin (Gibco) at a final concentration of 220,000 cells/mL and dispensed into white 96-well plates at 90 μL/well. Subsequent transfections and screens were carried using an Agilent Bravo Automated Liquid Handling Platform. First, the 96-well HiBiT DNA arrays were diluted 25-fold in Opti-MEM (without serum or phenol red) to a final concentration of 0.0004 μg/μL and 20 μL of the diluted DNAs were transferred into new 96-well plates. Next, promoterless carrier DNA (1 μg/μL) was diluted 25-fold (0.04 μg/μL) and then dispensed into the diluted arrays at 20 μL/well. Following brief mixing, Viafect transfection reagent (Promega) diluted 16-fold into Opti-MEM was dispensed into the plates at 40 μL/well. After mixing by pipetting, plates were incubated for 10 min on the pipetting station deck. The DNA-transfection reagent complexes were then added to plates containing cells. To facilitate the screen, 10 μL of DNA-transfection reagent complexes were added in duplicates to the top 4 and bottom 4 rows, resulting in two identical 48-well arrays per plate. Plates with transfected cells were incubated for 18–20 h at 37 °C/5% CO2. A screen of each tracer across the entire library using two different concentrations requires duplicate plates of transfected cells. Depending on the number of tracers being screened, transfections can be scaled up using the same ratios. The next day, for each tracer, four 20× screening solutions in tracer dilution buffer (Promega) were prepared: two duplicates at final concentration of 20 μM and two duplicates at a final concentration of 2 μM. […] The four resulting solutions were diluted 4-fold in Opti-MEM without serum or phenol red to generate 5× solutions (5 µM and 0.5 µM tracer +/− 100 μM competing compound). To screen the library, a BioTek MultiFlo FX liquid dispenser was used to dispense 22.5 µL of tracer solution to the top 4 rows and 22.5 µL tracer + competing compound solution to the 4 bottom rows. Plates were briefly mixed on an orbital shaker and incubated for 1.5 h at room temperature. […] Plates were briefly mixed on an orbital shaker and incubated for 15 min to allow complementation.
A general note: BRET reads energy transfer from a luciferase to a nearby fluorophore.

Experiment [2] addresses T2, CYSLTR1 (Homo sapiens, UniProt Q9Y271).
T2 construct: purchased Promega (in-house HiBiT-GPCR construct library, NanoBRET)
T2 sequence (Q9Y271 1-337): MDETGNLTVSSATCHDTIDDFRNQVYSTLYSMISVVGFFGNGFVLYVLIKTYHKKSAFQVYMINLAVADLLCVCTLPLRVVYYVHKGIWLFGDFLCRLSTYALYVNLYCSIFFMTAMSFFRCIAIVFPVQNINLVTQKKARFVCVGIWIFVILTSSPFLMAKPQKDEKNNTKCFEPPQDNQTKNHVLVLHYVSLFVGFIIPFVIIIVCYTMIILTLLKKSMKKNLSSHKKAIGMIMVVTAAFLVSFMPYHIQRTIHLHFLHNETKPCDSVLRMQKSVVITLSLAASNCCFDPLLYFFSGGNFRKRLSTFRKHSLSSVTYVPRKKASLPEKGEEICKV
In words: NanoBRET screen HiBiT-CYSLTR1 in HEK293. The experiment is classed as binding. As to conditions: CYSLTR1. The protocol: as §1, §2

Consider `CC(C)N(CC[C@H](c1ccccc1)c1cc(CCNC(=O)CCOCCOCCOCCOCCNC(=O)CCc2ccc3n2[B-](F)(F)[N+]2=C(c4ccc[nH]4)C=CC2=C3)ccc1O)C(C)C` [Tolterodine-2-NB590], for which the “NanoBRET Fold Response” value in experiment [1] (HTR2C, tracer 0.1μM) was found to be 1.09; in experiment [1] (HTR2C, tracer 1μM), 1.01; in experiment [2] (tracer 0.1μM), 0.86; in experiment [2] (tracer 1μM), 0.91.
For `Cc1cc2c(s1)Nc1ccccc1N=C2N1CCN(CCCNC(=O)CCOCCOCCOCCOCCNC(=O)CCc2ccc3n2[B-](F)(F)[N+]2=C(c4ccc[nH]4)C=CC2=C3)CC1` [Olanzapine-a-2-NB590] the same measures were 1.54, 1.22, 1.00 and 1.06.
For `N#CN=C(NCCCOc1cccc(CN2CCCCC2)c1)NCCNC(=O)CCOCCOCCOCCOCCNC(=O)CCc1ccc2n1[B-](F)(F)[N+]1=C(c3ccc[nH]3)C=CC1=C2` [Aminopotentidine-2-NB590], in that order: 1.01, 1.04, 1.05 and 1.00.
As for `Cc1nc2n(c(=O)c1CCN1CCC(c3noc4cc(F)ccc34)CC1)CCCC2OC(=O)NCCOCCOCCOCCOCCNC(=O)CCc1ccc2n1[B-](F)(F)[N+]1=C(c3ccc[nH]3)C=CC1=C2` (centres unmarked) [Risperidone-2-NB590], the “NanoBRET Fold Response” value in experiment [1] (HTR2C, tracer 0.1μM) is on record as 1.26; in experiment [1] (HTR2C, tracer 1μM), 2.15; in experiment [2] (tracer 0.1μM) it was 0.97; in experiment [2] (tracer 1μM) it was 0.94.
Regarding `CN(C)CCC=C1c2ccccc2CCc2ccc(C(=O)NCCNC(=O)CCOCCOCCOCCOCCNC(=O)CCc3ccc4n3[B-](F)(F)[N+]3=C(c5ccc[nH]5)C=CC3=C4)cc21` [Amitriptyline-b-2-NB590], the “NanoBRET Fold Response” value in experiment [1] (tracer at 0.1μM, listed as amitriptyline-b-2-NB590) is recorded as 1.74; in experiment [1] (tracer at 1μM, listed as amitriptyline-b-2-NB590), 2.18; in experiment [2] (tracer 0.1μM), 0.94; in experiment [2] (tracer 1μM) it was 1.01.
